Results reported in publication PMC3485097, “Branching of the p-nitrophenol (PNP) degradation pathway in burkholderia sp. Strain SJ98: Evidences from genetic characterization of PNP gene cluster” (AMB Express, 2012).

What was measured:
[1] = tested on: T1, reconstituted HqD (PnpE1_2-PnpE2_2 heterotetrameric complex); assay: spectrophotometric, 4-hydroxymuconic semialdehyde formation at […] nm; format: biochemical, Burkholderia sp. SJ98; conditions: pH 7.0, 25°C; Fe(II) required (100 μM FeSO4 in the standard assay)
T1 construct: gene pnpE1; N-terminal 6xHis on both subunits (pDEST17), E. coli BL21-AI; mixed, gel-filtered, ~120 kDa heterotetramer; with Hydroquinone dioxygenase small subunit

[2] = target: PnpE2, small subunit of hydroquinone dioxygenase (HqD) of Burkholderia sp. strain SJ98 (Burkholderia sp. strain SJ98); assay: SEC; purified PnpE1 and PnpE2 mixed in molar ratios from 3:1 to 1:3 in 50 mM phosphate buffer pH 7.0, incubated at 30°C for 1 h, then Sephacryl-200 gel filtration; molecular weight from the elution volume against standard proteins

| Molecule | Km [1] [µM] | stoichiometry N (molecules of each subunit (2:2)) [2] |
| --- | --- | --- |
| Oc1ccc(O)cc1 [HQ, hydroquinone] | 65.3 ± 10.5 | – |
| PnpE1, large subunit of hydroquinone dioxygenase (HqD) of Burkholderia sp. strain SJ98 (natural protein) | – | 2 |
